Test results from US6172085A (priority 1996, dated 2001).
Structures can show the parent of a compound that is named as a salt.

System: sodium channel
Assay type: binding, Wistar rats
Details: rat cerebral cortex membrane, 5 nM [^3 H]batracotoxinin A20-α-benzoate, 1 μM tetrodotoxin, 100 μg/mL scorpion toxin, 37° C., 1 hour

Row | SMILES | IC50 [nM]
1 | Cc1c(C)c2c(c(C)c1N)CC(C)(CN1CCC(CCc3ccccc3)CC1)O2 (centres unmarked) [Example 1, 2,3-Dihydro-2,4,6,7-tetramethyl-2-[[4-(2-phenylethyl)-1-piperidinyl]methyl]-5-benzofuranamine] | 220
2 | Cc1c(C)c2c(c(C)c1N)CC(C)(CN1CCC(CCCc3ccccc3)CC1)O2 (centres unmarked) [Example 2, 2,3-Dihydro-2,4,6,7-tetramethyl-2-[[4-(3-phenylpropyl)-1-piperidinyl]methyl]-5-benzofuranamine] | 280
3 | Cc1c(C)c2c(c(C)c1N)CC(C)(CN1CCC(CCCCc3ccccc3)CC1)O2 (centres unmarked) [Example 3, 2,3-Dihydro-2,4,6,7-tetramethyl-2-[[4-(4-phenylbutyl)-1-piperidinyl]methyl]-5-benzofuranamine] | 260
4 | Cc1c(C)c2c(c(C)c1N)CC(C)(CN1CCN(Cc3ccc4c(c3)OCO4)CC1)O2 (centres unmarked) [Example 4, 2,3-Dihydro-2,4,6,7-tetramethyl-2-[[4-[(3,4-methylenedioxyphenyl)methyl]-1-piperazinyl]methyl]-5-benzofuranamine trihydrochloride] | 280
5 | Cc1c(C)c2c(c(C)c1N)CC(C)(CN1CCC(Cc3ccccc3)CC1)O2 (centres unmarked) [Example 5, 2-[(4-Benzyl-1-piperidinyl)methyl]-2,3-dihydro-2,4,6,7-tetramethyl-5-benzofuranamine] | 520
6 | Cc1c(C)c2c(c(C)c1N)CC(C)(CN1CCN(Cc3ccccc3)CC1)O2 (centres unmarked) [Example 6, 2-[(4-Benzyl-1-piperazinyl)methyl]-2,3-dihydro-2,4,6,7-tetramethyl-5-benzofuranamine trihydrochloride] | 790
7 | Cc1c(C)c2c(c(C)c1N)CC(C)(CN1CCC(OC(c3ccccc3)c3ccccc3)CC1)O2 (centres unmarked) [Example 17, 2-[[4-(Diphenylmethoxy)-1-piperidinyl]methyl]-2,3-dihydro-2,4,6,7-tetramethyl-5-benzofuranamine oxalate] | 320
8 | Cc1c(C)c2c(c(C)c1N)CC(C)(CN1CCC(COC(c3ccccc3)c3ccccc3)CC1)O2 (centres unmarked) [Example 24, 2-[[4-[(Diphenylmethoxy)methyl]-1-piperidinyl]methyl]-2,3-dihydro-2,4,6,7-tetramethyl-5-benzofuranamine oxalate] | 410
9 | Cc1c(C)c2c(c(C)c1N)CC(C)(CN1CCC(CCOC(c3ccccc3)c3ccccc3)CC1)O2 (centres unmarked) [Example 25, 2-[[4-[2-(Diphenylmethoxy)ethyl]-1-piperidinyl]methyl]-2,3-dihydro-2,4,6,7-tetramethyl-5-benzofuranamine oxalate] | 340
10 | Cc1c(C)c2c(c(C)c1N)CC(C)(CN1CCC(CCCOC(c3ccccc3)c3ccccc3)CC1)O2 (centres unmarked) [Example 26, 2-[[4-[3-(Diphenylmethoxy)propyl]-1-piperidinyl]methyl]-2,3-dihydro-2,4,6,7-tetramethyl-5-benzofuranamine oxalate] | 220
11 | Cc1c(C)c2c(c(C)c1N)CC(C)(CN1CCN(CCc3ccccc3)CC1)O2 (centres unmarked) [Example 27, 2,3-Dihydro-2,4,6,7-tetramethyl-2-[[4-(2-phenylethyl)-1-piperazinyl]methyl]-5-benzofuranamine] | 200
12 | Cc1c(C)c2c(c(C)c1N)CC(C)(CN1CCC(OC(c3ccc(F)cc3)c3ccc(F)cc3)CC1)O2 (centres unmarked) [Example 28, 2-[[4-[Bis(4-fluorophenyl)methoxy]-1-piperidinyl]methyl]-2,3-dihydro-2,4,6,7-tetramethyl-5-benzofuranamine oxalate] | 220
13 | COc1ccc(CN2CCN(CC3(C)Cc4c(C)c(N)c(C)c(C)c4O3)CC2)cc1 (centres unmarked) [Example 29, 2,3-Dihydro-2-[[4-(4-methoxybenzyl)-1-piperazinyl]methyl]-2,4,6,7-tetramethyl-5-benzofuranamine trihydrochloride] | 210
14 | COc1cccc(CN2CCN(CC3(C)Cc4c(C)c(N)c(C)c(C)c4O3)CC2)c1 (centres unmarked) [Example 30, 2,3-Dihydro-2-[[4-(3-methoxybenzyl)-1-piperazinyl]methyl]-2,4,6,7-tetramethyl-5-benzofuranamine trihydrochloride] | 390
15 | COc1ccccc1CN1CCN(CC2(C)Cc3c(C)c(N)c(C)c(C)c3O2)CC1 (centres unmarked) [Example 31, 2,3-Dihydro-2-[[4-(2-methoxybenzyl)-1-piperazinyl]methyl]-2,4,6,7-tetramethyl-5-benzofuranamine trihydrochloride] | 490
16 | COc1ccc(CN2CCN(CC3(C)Cc4c(C)c(N)c(C)c(C)c4O3)CC2)cc1OC (centres unmarked) [Example 32, 2-[[4-(3,4-Dimethoxybenzyl)-1-piperazinyl]methyl]-2,3-dihydro-2,4,6,7-tetramethyl-5-benzofuranamine trihydrochloride] | 250
17 | Cc1c(C)c2c(c(C)c1N)CC(C)(CN1CCN(Cc3ccc(Cl)cc3)CC1)O2 (centres unmarked) [Example 33, 2-[[4-(4-Chlorobenzyl)-1-piperazinyl]methyl]-2,3-dihydro-2,4,6,7-tetramethyl-5-benzofuranamine trihydrochloride] | 310
18 | Cc1ccc(CN2CCN(CC3(C)Cc4c(C)c(N)c(C)c(C)c4O3)CC2)cc1 (centres unmarked) [Example 34, 2,3-Dihydro-2,4,6,7-tetramethyl-2-[[4-(4-methylbenzyl)-1-piperazinyl]methyl]-5-benzofuranamine trihydrochloride] | 420
19 | Cc1c(C)c2c(c(C)c1N)CC(C)(CN1CCC(NC(c3ccccc3)c3ccccc3)CC1)O2 (centres unmarked) [Example 40, 1-[(5-Amino-2,3-dihydro-2,4,6,7-tetramethylbenzofuran-2-yl)methyl]-N-(diphenylmethyl)-4-piperidinamine trihydrochloride] | 160
20 | Cc1c(C)c2c(c(C)c1N)CC(C)(CN1CCC(CCNC(c3ccccc3)c3ccccc3)CC1)O2 (centres unmarked) [Example 41, 1[(5-Amino-2,3-dihydro-2,4,6,7-tetramethylbenzofuran-2-yl)methyl]-N-(diphenylmethyl)-4-piperidineethylamine trihydrochloride] | 140
21 | Cc1c(C)c2c(c(C)c1N)CC(C)(CN1CCC(CCNCCC(c3ccccc3)c3ccccc3)CC1)O2 (centres unmarked) [Example 42, 1-[(5-Amino-2,3-dihydro-2,4,6,7-tetramethylbenzofuran-2-yl)methyl]-N-(3,3-diphenylpropyl)-4-piperidineethylamine trihydrochloride] | 160
22 | CCNc1c(C)c(C)c2c(c1C)CC(C)(CN1CCC(c3ccccc3)CC1)O2 (centres unmarked) [Reference Example 8, N-ethyl-2,3-dihydro-2,4,6,7-tetramethyl-2-[(4-phenyl-1-piperidinyl)methyl]-5-benzofuranamine] | 640
23 | Cc1c(C)c2c(c(C)c1N)CC(C)(CN1CCc3ccccc3CC1)O2 (centres unmarked) [Reference Example 10, 2,3-Dihydro-2,4,6,7-tetramethyl-2-[(2,3,4,5-tetrahydro-1H-3-benzazepin-3-yl)methyl]-5-benzofuranamine dihydrochloride] | 470
